Laboratory results reported in article PMC5329948, “Caspase vinyl sulfone small molecule inhibitors prevent axonal degeneration in human neurons and reverse cognitive impairment in Caspase-6-overexpressing mice” (Molecular Neurodegeneration, 2017).

Test system: Casp6-overexpressing KI/Cre mice
Assay: Novel object recognition task in Casp6-overexpressing KI/Cre mice
Type: in vivo, mouse
Conditions: 20 mg/kg i.p.
Method: Casp6 transgenic mouse model: All animal procedures followed the Canadian Council on Animal Care guidelines and were approved by the McGill Animal care committees. Sixteen to 20 month old C57BL/6 J mice were bred and aged in the pathogen-free Goodman Cancer Research Centre Mouse Transgenic Facility at McGill University. Mice were housed in a temperature-controlled room at 22 °C and were kept on a 12 h light/dark cycle. Food and water were available at libitum. Casp6 overexpressing mice (KI/Cre) express Casp6p20p10 under the CAG promoter (CMV immediate early enchancer/chicken β-actin promoter fusion) in the CA1 pyramidal cell layer of the hippocampus under the control of calmodulin kinase IIa (CAMKIIa)-regulated Cre expression.
Only males were used and littermates from each genotype (wild type (WT)/WT, WT/Cre, & knock-in (KI/)Cre) were tested together. The experimenter was blind to genotype and treatment groups. Mice were administered 20 mg/kg NWL-117 or physiological saline (0.9% NaCl) by intraperitoneal injections two times 48 h apart. […] Blood brain barrier permeability of NWL-117 caspase inhibitor: Briefly, 18–22 month old Casp6 mice were anesthetised with isoflurane, warmed with a heating blanket, and their physiological vitals (heart rate, body temperature, and respiration) monitored. The skin over the mouse’s neck was shaved, xylocaine applied, and an incision was made along the midline. Under a surgical microscope, the right carotid artery was gently separated from surrounding tissue. Two suture threads were placed at the proximal and distal ends of the carotid, and a small incision was made along the carotid wall. A micro-catheter (attached to a 1 ml syringe controlled by a micropump) was inserted and pushed to the entrance of the internal carotid artery. The catheter was secured in place using suture thread. […] The number of times touching each object was manually recorded, while the total distance, percent time moving, and number of entries into virtual cells were recorded using the HVS 2100 automated video tracking system (HVS Image, Buckingham, UK). […]

## CCC(C)[C@H](NC(=O)[C@H](CCC(=O)O)NC(=O)[C@@H](NC(=O)OCc1ccccc1)C(C)C)C(=O)N[C@H](/C=C/S(C)(=O)=O)CC(=O)O (stereo partly drawn) [NWL-117]
Two injections
  locomotor or exploratory activities: no effect
Two injections 48 h apart
  NOR performance in KI/Cre mice: regained normal NOR performance
Two injections 48 h apart, WT/WT and WT/Cre
  NOR performance in control mice: performed equally to saline-treated mice
